We go through 1 molecule from patent US12522614B2, “Topical phosphoinositide 3-kinase inhibitors” (VENTHERA, INC., priority 2019, dated 2026).

Data set [1] can be described thus: In vitro skin permeation study, mouse skin vs. human skin. Format: in vitro ADME. As to conditions: Example 8 gel. As for the experimental part: The gel formulation of Example 8 was used to determine the skin permeation through human and mouse skin. It is important to understand the permeation difference between the two types of skin, because mouse skin is used extensively in toxicology studies as well as in early in vivo studies. The skin permeation study was performed in accordance with the method as described in Example 9.

Data set [2] in a line: Accelerated stability study of topical gel formulations at 80° C. As to conditions: gel formulation (Table 2 excipients), 80° C. In kind it is physicochemical. As for the experimental part: Topical gel formulations were prepared using excipients as shown in Table 2 according to Example 8, in which Compounds 1.002, 1.012, and 1.006 were used as the active ingredient, respectively. These gel formulations were subjected to stability study at 80° C. for 10 days. Stability under the condition of at 80° C. for 10 days is expected to be approximately equivalent to the stability for three (3) years at room temperature. A relative purity of the tested compound after being exposed for 5 days and 10 days at 80° C. was determined by HPLC, as compared to its initial purity (at day 0).
The values shown in the table are percent hydrolysis of the respective compounds to the parent compound MTPP.
Topical gel formulations of Compound 1.002 were prepared using excipients as shown in Table 2 according to Example 8, in which the content of oleic acid varied at 1%, 2%, 5%, and 10%, respectively. These gel formulations were subjected to stability study at 80° C. for 10 days, which is expected to be approximately equivalent to the stability for three (3) years at room temperature. A purity of the tested compound on day 0, 5, 7, and 10 at 80° C. was determined by HPLC. The detected impurity of the tested compound appears to be the hydrolysis product, as MTPP. Table 17 represents stability data of Compound 1.002 in topical formulations having oleic acid at various contents.
Gel formulations of Example 17 were subjected to stability study at 80° C. for 10 days. Stability under the condition of at 80° C. for 10 days is expected to be approximately equivalent to the stability for three (3) years at room temperature. A relative purity of Compound 1.002 after being exposed for 5 days and 10 days at 80° C. was determined by HPLC, as compared to its initial purity (at day 0).

In the case of `CC(=O)Oc1cccc(-c2nc(N3CCOCC3)c3sccc3n2)c1` [Compound 1.002, 3-(4-Morpholinothieno[3,2-d]pyrimidin-2-yl)phenyl Acetate], the “Permeation through mouse skin compared with human skin” value in data set [1] (48 hours, FIG. 5) is “approximately three times higher”. Further, in data set [1] (both skin types), the “Metabolism of Compound 1.002 to MTPP in human and mouse skin” value is reported as “proceeded equally well”. Also, the “Relative Purity” value in data set [2] (Day 0) is 100%; in data set [2] (Day 5), 96%; in data set [2] (Day 10) it was 94%.
